Measurements: patent publication US20200277373A1, “ANTI-TREM2 ANTIBODIES AND METHODS OF USE THEREOF” (Denali Therapeutics Inc., priority 2017, published 2020)

Assays:
Assay type in all cases: cell-based
[1] = test system: primary human macrophages; experiment: Liposome stimulation pSyk AlphaLISA, primary human macrophages; conditions: liposomes 30% lipid/70% PC (KLA 10%/90%)
Description: (§1) Lipids were purchased from Avanti Polar Lipids (Alabaster, Ala.) or Echelon Biosciences (Salt Lake City, Utah). Each screened lipid was resuspended in chloroform and added at 30 mole percent composition to 70 mole percent phosphatidylcholine (PC; 1,2-dioleoyl-sn-glycero-3-phosphocholine, Avanti Polar Lipids). Kdo2-Lipid A was added at a 10 mole percent composition with 90 mole percent PC. Lipid mixes were dried under nitrogen gas and resuspended in HBSS at a concentration of 4 mg/mL. Mixes were vortexed or briefly sonicated until resuspended, then bath sonicated for 1-5 minutes. Liposomes were used for 1-2 weeks. 3 independent batches of liposomes were used in experiments.
10 mL human blood was obtained from Blood Centers of the Pacific. Monocytes were extracted using RosetteSep Human Monocyte Enrichment Cocktail ([…] Technologies Inc.; Vancouver, BC; #15068) as per manufacturer protocols. Density gradient was performed with Ficoll-Paque Premium (GE Healthcare Life Sciences; Pittsburgh, Pa.; #17-5442-02). Isolated monocytes were resuspended at ˜1-1.3 million cells/mL and cultured for 5-6 days in RPMI, 10% Hyclone Fetal Bovine Serum, and penicillin/streptomycin supplemented with 50 ng/mL human M-CSF (Gibco, # PHC9501) in T175 tissue culture treated flasks. M-CSF was replenished every 2-3 days. Cells were washed once with PBS, 15 mL fresh medium was added, and cells were harvested by scraping. Cells were cultured overnight at a density of 100,000 cells per well on tissue culture treated 96-well plates supplemented with 10-25 ng/mL M-CSF.
(§2) Cell culture medium was removed and cells were washed once with 200ul HBSS. Liposomes were diluted in HBSS in concentrations ranging from 0.03125 mg/mL to 2 mg/mL, then 50 μl was added to wells in 2-3 technical replicates per plate. Each plate contained HBSS negative control wells, 100% PC liposome control, 5 μg/mL agonist anti-TREM2 positive control (Abnova; Taiwan; # MAB2056), and 5 μg/mL mouse IgG3 isotype control (R&D Systems; Minneapolis, Minn.; # MAB007). Stimuli were incubated with cells for 5 minutes at 37° C., 5% CO2, liposomes were removed, and plates were frozen at −80° C.
(§3) Cells were lysed for 30 minutes to 1 hour on ice in 50 ul/well Cell Lysis Buffer (Cell Signaling Technology; Danvers, Mass.; #9803) with 1 mM PMSF. AlphaLISA SureFire Ultra p-Syk Tyr525/526 assay kit (PerkinElmer, ALSU-PSYK-A10OK) was used to measure pSyk levels in lysate as per manufacturer protocol. 10 μl lysate was added to 384-well OptiPlates (PerkinElmer; #6007290) and an EnVision Multilabel Plate Reader (PerkinElmer) was used to measure AlphaLISA fluorescence.
(§4) PSyk AlphaLISA fluorescence was converted to a log 2 scale. Fluorescence values from liposomes and controls were each subtracted from average fluorescence values from HBSS stimulated wells on the same plate (log 2(liposome)−log 2(HBSSave)=log 2(signal)). The result was converted back to a standard scale to measure fold change (2^log 2(signal)=fold change). Technical replicate fold changes values were averaged to obtain the fold change over background listed (pSyk FOB). Graphs represent values from independent experiments or individual human donors. Results from the screen on the HEK293 overexpressing cell lines are shown in Table 9 below and in FIG. 8A-8B. HEK293 results showing specificity for TREM2 over DAP12 expressed alone can be used to extrapolate which lipid species are likely acting as TREM2 ligands on human macrophages.

R47H TREM2 mutant = molecular target: T1, R47H TREM2 mutant (Homo sapiens, UniProt Q9NZC2, R47H); experiment: Liposome stimulation pSyk AlphaLISA, HEK293 overexpressing TREM2-R47H and DAP12; conditions: liposomes 30% lipid/70% PC (KLA 10%/90%), fold change over HBSS
T1 construct: expressed in transfected cells
T1 sequence (Q9NZC2 19-230 R47H): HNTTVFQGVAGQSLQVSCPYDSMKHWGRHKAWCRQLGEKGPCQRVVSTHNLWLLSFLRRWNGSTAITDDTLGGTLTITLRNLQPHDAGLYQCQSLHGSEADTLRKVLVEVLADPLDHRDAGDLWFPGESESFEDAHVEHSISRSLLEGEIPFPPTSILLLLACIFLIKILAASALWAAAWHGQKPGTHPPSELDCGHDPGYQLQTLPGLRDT
T1 sequence (O43914 22-113 partner): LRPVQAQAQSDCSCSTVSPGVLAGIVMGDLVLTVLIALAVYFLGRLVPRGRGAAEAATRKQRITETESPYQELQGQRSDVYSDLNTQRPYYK
Description: as §1
(§5) HEK293 cell lines overexpressing TREM2 and DAP12, mutant TREM2-R47H and DAP12, or DAP12 alone were plated in 96-well PDL-coated plates at a density of 40,000 cells per well and cultured for 36-48 hours until 90-100% confluent.
as §2, §3, §4

TREM2 = molecular target: T2, TREM2 (Homo sapiens, UniProt Q9NZC2); experiment: Liposome stimulation pSyk AlphaLISA, HEK293 overexpressing TREM2 and DAP12; conditions: liposomes 30% lipid/70% PC (KLA 10%/90%), fold change over HBSS
T2 construct: expressed in transfected cells
T2 sequence (Q9NZC2 19-230): as the sequence (Q9NZC2 19-230 R47H) above, with H29R counted along it
T2 sequence (O43914 22-113 partner): as the sequence (O43914 22-113 partner) above
Description: as §1, §5, §2, §3, §4

DAP12 alone = molecular target: T3, DAP12 alone (Homo sapiens, UniProt O43914); experiment: Liposome stimulation pSyk AlphaLISA, HEK293 expressing DAP12 alone; conditions: liposomes 30% lipid/70% PC (KLA 10%/90%), fold change over HBSS
T3 construct: expressed in transfected cells
T3 sequence (O43914 22-113): as the sequence (O43914 22-113 partner) above
Description: as §1, §5, §2, §3, §4

| Compound | pSyk FOB [1] [FOB] | R47H TREM2 mutant (pSyk FOB) (R47H TREM2 mutant) [FOB] | Human TREM2 (pSyk FOB) (TREM2) [FOB] | DAP12 alone (pSyk FOB) (DAP12 alone) [FOB] |
| --- | --- | --- | --- | --- |
| Cardiolipin [Cardiolipin (CL)] | 2.50 | 3.31 | 3.79 | 1.26 |
| CC(C)CCC[C@@H](C)[C@H]1CC[C@H]2[C@@H]3CC=C4C[C@@H](OP(=O)(O)O)CC[C@]4(C)[C@H]3CC[C@]12C [Cholesterol phosphate (CP), Cholesterol phosphate] | 1.18 | 3.09 | 2.43 | 1.27 |
| Lysophosphatidylglycerol [Lysophosphatidylglycerol (LPG)] | 1.64 | 3.44 | 4.83 | 1.28 |
| N-Acyl-phosphatidylethanolamine [N-Acyl-phosphatidylethanolamine (NAPE)] | – | 0.94 | 0.67 | 0.78 |
| Cholesteryl ester [Cholesteryl ester (CE)] | 1.62 | 10.90 | 4.24 | 1.14 |
| Glucosylceramide [Glucosylceramide (GlcCer)] | 1.58 | – | – | – |
| Lysophosphatidylinositol [Lysophosphatidylinositol (LPI)] | 1.61 | 0.32 | 1.12 | 1.03 |
| Lysophosphatidylethanolamine [LysophosphatidyLethanolamine (LPE)] | 2.03 | 3.58 | 4.16 | 1.28 |
| Palmitic-acid-9-hydroxy-stearic-acid | 3.94 | 7.31 | 5.87 | 1.27 |
| Lactosylceramide [Lactosylceramide (LacCer)] | 1.29 | 2.06 | 1.89 | 1.27 |
| CCCCCCCCCCCCCC(=O)O[C@H](CCCCCCCCCCC)CC(=O)O[C@@H]1[C@@H](NC(=O)C[C@@H](CCCCCCCCCCC)OC(=O)CCCCCCCCCCC)[C@H](OC[C@H]2O[C@H](OP(=O)(O)O)[C@H](NC(=O)C[C@H](O)CCCCCCCCCCC)[C@@H](OC(=O)C[C@H](O)CCCCCCCCCCC)[C@@H]2O)O[C@H](CO[C@]2(C(=O)O)C[C@@H](O[C@]3(C(=O)O)C[C@@H](O)[C@@H](O)[C@@H]([C@H](O)CO)O3)[C@@H](O)[C@@H]([C@H](O)CO)O2)[C@H]1OP(=O)(O)O [Kdo2-Lipid A (KLA), Kdo2-Lipid A] | 2.73 | 6.65 | 5.15 | 1.25 |
| Diacylglycerol 34:1 [Diacylglycerol 34:1 (DG34:1)] | – | 0.68 | 1.20 | 0.68 |
| Ether phosphatidylcholine [Ether phosphatidylcholine (PCe)] | 1.29 | 3.97 | 2.94 | 1.33 |
| CCCCCCCCCCCCC/C=C/[C@@H](O)[C@@H](N)CO [Sphingosine] | 0.96 | 0.85 | 0.67 | 1.32 |
| CCCCCCCCCCCCC/C=C/[C@@H](O)[C@@H](N)CO[C@@H]1O[C@H](CO)[C@@H](O)[C@H](O)[C@H]1O [Glucosyl sphingosine (GlcSo), Glucosyl sphingosine] | 2.05 | 1.27 | 1.34 | 1.31 |
| CC(C)[C@@H](O)CC[C@@H](C)[C@H]1CC[C@H]2[C@@H]3CC=C4C[C@@H](O)CC[C@]4(C)[C@H]3CC[C@]12C [24(S)hydroxycholesterol (24OHC), 24(S)hydroxycholesterol] | 1.56 | 8.44 | 4.50 | 1.57 |
| CCCCCCCCCCCCCCCC(=O)OC[C@H](COP(=O)([O-])OCC[N+](C)(C)C)OC(=O)CCCC=O [1-palmitoyl-2-(5′-oxo-valeroyl)-sn-glycero-3-phosphocholine] | – | 1.57 | 0.86 | 1.34 |
| CCCCCCCCCCCCCCCCCCCCCCCCCC(=O)N[C@@H](CO[C@H]1O[C@H](CO)[C@H](O)[C@H](O)[C@H]1O)[C@H](O)[C@H](O)CCCCCCCCCCCCCC [α-galactosylceramide (KRN7000), α-galactosylceramide] | – | 0.97 | 0.79 | 0.85 |
| C[C@H](CCCC(C)(C)O)[C@H]1CC[C@H]2[C@@H]3CC=C4C[C@@H](O)CC[C@]4(C)[C@H]3CC[C@]12C [25(S)hydroxycholesterol (25OHC), 25(S)hydroxycholesterol] | 1.14 | 6.27 | 2.61 | 1.20 |
| Oxidized phosphatidylcholine [Oxidized phosphatidylcholine (oxPC)] | 1.25 | 0.68 | 0.81 | 1.26 |
| Lysophosphatidylcholine [Lysophosphatidylcholine (LPC)] | – | 1.47 | 1.26 | 1.14 |
| CCCCCCCCCCCCCCC[C@@H](O)[C@@H](N)CO [Sphinganine] | – | 1.39 | 0.76 | 1.26 |
| alkylacylglycerophosphocholine [alkylacylglycerophosphocholine (PAF)] | – | 1.41 | 1.58 | 0.69 |
| Dihyrdoceramide [Dihyrdoceramide (DhCer)] | – | 1.47 | 1.22 | 0.84 |
| Acyl Carnitine [Acyl Carnitine (AC)] | – | 1.83 | 1.17 | 1.55 |
| CCCCCCCCCCCCC/C=C/[C@@H](O)[C@@H](N)CO[C@@H]1O[C@H](CO)[C@H](O)[C@H](O)[C@H]1O [Galactosylsphingosine (GalSo), Galactosylsphingosine] | – | 1.07 | 1.09 | 0.71 |
| Diacylglycerol 38:4 [Diacylglycerol 38:4 (DG 38:4)] | – | 0.73 | 1.05 | 0.64 |
| lysoalkylacylglycerophosphocholine | – | 1.46 | 1.81 | 0.67 |
